The results in this text go back to patent US12410208B2, “(2-acetamidyl)thio-beta-D-galactopyranoside derivatives” (Idorsia Pharmaceuticals Ltd, priority 2020, dated 2025).

Assay [1] concerns the target biotinylated human Gal-3 (hGal-3) (Homo sapiens, UniProt P17931). Kind of assay: Competitive binding assay: biotinylated hGal-3 binding to microplate-adsorbed asialofetuin (ASF), spectrophotometric. An outline of the steps: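 Competitive binding of biotinylated hGal-3 to plate-adsorbed asialofetuin was measured with serially diluted compounds over 3 h at 4° C. Bound protein was detected with streptavidin-peroxidase and ABTS substrate by absorbance. IC50 values are means of several measurements.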

Another assay has as its target human Gal-1 (hGal-1) (Homo sapiens, UniProt P09382). Kind of assay: Competitive binding assay: biotinylated hGal-1 binding to microplate-adsorbed asialofetuin (ASF), spectrophotometric. The following applies: hGal-1 binding to asialofetuin; Table 15; R and S epimers of selected Examples also listed; read-out: IC50 (Galectin-1 inhibition). An outline of the steps:
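Biotinylated hGal-1 (300-1000 ng/mL) incubated with compound on asialofetuin-coated plates 3 hours at 4 °C, washed, then streptavidin-peroxidase (80 ng/mL) 1 hour at 4 °C. ABTS substrate read spectrophotometrically; IC50 reported as mean of several measurements.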

[2] abbreviates: Gal-3 inhibition, Table 5, read-out: IC50.
Where [3] appears, read: Gal-3 inhibition, Table 4, read-out: IC50.
Setting [4] is: Table 8, hGal-3, read-out: IC50 (Gal-3 inhibition).

Like-named read-outs stand apart in the source and are kept apart here.

Sequence of biotinylated human Gal-3 (hGal-3) (P17931 whole entry): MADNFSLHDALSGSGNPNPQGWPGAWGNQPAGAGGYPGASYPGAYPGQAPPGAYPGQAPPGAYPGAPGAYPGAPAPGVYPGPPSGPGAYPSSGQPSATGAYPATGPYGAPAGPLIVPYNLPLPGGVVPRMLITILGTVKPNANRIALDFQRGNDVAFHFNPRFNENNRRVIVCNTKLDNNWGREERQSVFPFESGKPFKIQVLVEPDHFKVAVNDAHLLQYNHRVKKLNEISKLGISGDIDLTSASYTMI
Sequence of human Gal-1 (hGal-1) (P09382 whole entry): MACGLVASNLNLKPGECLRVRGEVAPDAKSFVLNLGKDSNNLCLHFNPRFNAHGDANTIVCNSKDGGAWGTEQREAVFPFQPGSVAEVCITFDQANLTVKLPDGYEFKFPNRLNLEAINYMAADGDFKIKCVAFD

With `CN(CC1(F)CCCC1)C(=O)C(S[C@@H]1O[C@H](CO)[C@H](O)[C@H](n2cc(-c3cc(F)c(F)c(F)c3)nn2)[C@H]1O)C1(O)CCC(F)(F)CC1` (stereo partly drawn) [Example 2.44.223R., 2-(4,4-Difluoro-1-hydroxycyclohexyl)-2-(((2S,3R,4S,5R,6R)-3,5-dihydroxy-6-(hydroxymethyl)-4-(4-(3,4,5-trifluorophenyl)-1H-1,2,3-triazol-1-yl)tetrahydro-2H-pyran-2-yl)thio)-N-((1-fluorocyclopentyl)methyl)-N-methylacetamide], the half-maximal inhibitory concentration (IC50) in assay [1] (setting [2]) was 3570 nM; on human Gal-1 (hGal-1), 13400 nM.

As to `CO[C@@H]1[C@@H](n2cc(-c3cc(F)c(F)c(F)c3)nn2)[C@@H](O)[C@@H](CO)O[C@H]1SC(C(=O)NC(C)C)C1(O)CCC(F)(F)CC1` (stereo partly drawn) [Example 2.44.251.I., 2-(4,4-Difluoro-1-hydroxycyclohexyl)-2-(((2S,3R,4S,5R,6R)-5-hydroxy-6-(hydroxymethyl)-3-methoxy-4-(4-(3,4,5-trifluorophenyl)-1H-1,2,3-triazol-1-yl)tetrahydro-2H-pyran-2-yl)thio)-N-isopropylacetamide], the IC50 turned out to be 90 nM in assay [1] (Table 12, hGal-3, read-out: IC50 (Gal-3 inhibition)) and 190 nM on human Gal-1 (hGal-1).

With `CN(Cc1ccccc1)C(=O)[C@H](S[C@@H]1O[C@H](CO)[C@H](O)[C@H](n2cc(-c3cc(F)c(F)c(F)c3)nn2)[C@H]1O)C1(O)CCOCC1` [Example 2.41.207R., (R)-N-Benzyl-2-(((2S,3R,4S,5R,6R)-3,5-dihydroxy-6-(hydroxymethyl)-4-(4-(3,4,5-trifluorophenyl)-1H-1,2,3-triazol-1-yl)tetrahydro-2H-pyran-2-yl)thio)-2-(4-hydroxytetrahydro-2H-pyran-4-yl)-N-methylacetamide], the 50% inhibitory concentration (IC50) in assay [1] (setting [3]) was found to be 8230 nM; at human Gal-1 (hGal-1), 51500 nM.

Consider `CCC(O)C(S[C@@H]1O[C@H](CO)[C@H](O)[C@H](n2cc(-c3cc(F)c(F)c(F)c3)nn2)[C@H]1O)C(=O)N1CCC1` (stereo partly drawn) [Example 2.60.206., 1-(Azetidin-1-yl)-2-(((2S,3R,4S,5R,6R)-3,5-dihydroxy-6-(hydroxymethyl)-4-(4-(3,4,5-trifluorophenyl)-1H-1,2,3-triazol-1-yl)tetrahydro-2H-pyran-2-yl)thio)-3-hydroxypentan-1-one], for which the IC50 was determined as 500 nM in assay [1] (Gal-3 inhibition, Table 7, read-out: IC50) and 3400 nM at human Gal-1 (hGal-1).

As to `CCN(C)C(=O)[C@H](S[C@@H]1O[C@H](CO)[C@H](O)[C@H](n2cc(-c3cc(F)c(F)c(F)c3)nn2)[C@H]1OC)C1(O)CCN(C(=O)NC2CC2)CC1` [Example 2.49.226R.I., N-Cyclopropyl-4-((R)-2-(ethyl(methyl)amino)-1-(((2S,3R,4S,5R,6R)-5-hydroxy-6-(hydroxymethyl)-3-methoxy-4-(4-(3,4,5-trifluorophenyl)-1H-1,2,3-triazol-1-yl)tetrahydro-2H-pyran-2-yl)thio)-2-oxoethyl)-4-hydroxypiperidine-1-carboxamide], the IC50 was 1740 nM in assay [1] (setting [4]) and 80 nM at human Gal-1 (hGal-1).

In the case of `CO[C@@H]1[C@@H](n2cc(-c3cc(F)c(F)c(F)c3)nn2)[C@@H](O)[C@@H](CO)O[C@H]1S[C@H](C(=O)N1CCC(F)(F)CC1)C1(O)CCC2(CCOCC2)CC1` [Example 2.72.226S.I., (S)-1-(4,4-Difluoropiperidin-1-yl)-2-(((2S,3R,4S,5R,6R)-5-hydroxy-6-(hydroxymethyl)-3-methoxy-4-(4-(3,4,5-trifluorophenyl)-1H-1,2,3-triazol-1-yl)tetrahydro-2H-pyran-2-yl)thio)-2-(9-hydroxy-3-oxaspiro[5.5]undecan-9-yl)ethan-1-one], the half-maximal inhibitory concentration (IC50) amounted to 40 nM in assay [1] (Table 13, hGal-3, read-out: IC50 (Gal-3 inhibition)) and 100 nM on human Gal-1 (hGal-1).

With `CN(CC1CC1)C(=O)[C@@H](S[C@@H]1O[C@H](CO)[C@H](O)[C@H](n2cc(-c3cc(F)c(F)c(F)c3)nn2)[C@H]1O)C1(O)CCOCC1` [Example 2.41.218S., (S)-N-(Cyclopropylmethyl)-2-(((2S,3R,4S,5R,6R)-3,5-dihydroxy-6-(hydroxymethyl)-4-(4-(3,4,5-trifluorophenyl)-1H-1,2,3-triazol-1-yl)tetrahydro-2H-pyran-2-yl)thio)-2-(4-hydroxytetrahydro-2H-pyran-4-yl)-N-methylacetamide], the half-maximal inhibitory concentration (IC50) came to 20 nM in assay [1] (setting [3]) and 50 nM at human Gal-1 (hGal-1).

Consider `O=C(C(S[C@@H]1O[C@H](CO)[C@H](O)[C@H](n2cc(-c3cc(F)c(F)c(F)c3)nn2)[C@H]1O)C1(O)CCC1)N1CCC1` (stereo partly drawn) [Example 2.34.206., 1-(Azetidin-1-yl)-2-(((2S,3R,4S,5R,6R)-3,5-dihydroxy-6-(hydroxymethyl)-4-(4-(3,4,5-trifluorophenyl)-1H-1,2,3-triazol-1-yl)tetrahydro-2H-pyran-2-yl)thio)-2-(1-hydroxycyclobutyl)ethan-1-one], for which the IC50 came out at 1200 nM in assay [1] (setting [2]) and 2710 nM at human Gal-1 (hGal-1).

Turning to `O=C(C(S[C@@H]1O[C@H](CO)[C@H](O)[C@H](n2cc(-c3cc(F)c(F)c(F)c3)nn2)[C@H]1O)C1(O)CCOCC1)N1CCC1` (stereo partly drawn) [Example 2.41.206., 1-(Azetidin-1-yl)-2-(((2S,3R,4S,5R,6R)-3,5-dihydroxy-6-(hydroxymethyl)-4-(4-(3,4,5-trifluorophenyl)-1H-1,2,3-triazol-1-yl)tetrahydro-2H-pyran-2-yl)thio)-2-(4-hydroxytetrahydro-2H-pyran-4-yl)ethan-1-one], the results for the IC50 (in assay [1] (setting [3]); at human Gal-1 (hGal-1)) were 260 nM and 1500 nM, respectively.

In the case of `CN(CC(C)(C)F)C(=O)[C@H](S[C@@H]1O[C@H](CO)[C@H](O)[C@H](n2cc(-c3cc(F)c(F)c(F)c3)nn2)[C@H]1O)C1(O)CCCCC1` [Example 2.39.222R., (R)-2-(((2S,3R,4S,5R,6R)-3,5-Dihydroxy-6-(hydroxymethyl)-4-(4-(3,4,5-trifluorophenyl)-1H-1,2,3-triazol-1-yl)tetrahydro-2H-pyran-2-yl)thio)-N-(2-fluoro-2-methylpropyl)-2-(1-hydroxycyclohexyl)-N-methylacetamide], the IC50 is 10200 nM in assay [1] (setting [2]) and 38100 nM on human Gal-1 (hGal-1).

`CCN(C)C(=O)[C@H](S[C@@H]1O[C@H](CO)[C@H](O)[C@H](n2cc(-c3cc(F)c(F)c(F)c3)nn2)[C@H]1O)C(O)(CC)CC` [Example 2.32.203R., (R)-2-(((2S,3R,4S,5R,6R)-3,5-Dihydroxy-6-(hydroxymethyl)-4-(4-(3,4,5-trifluorophenyl)-1H-1,2,3-triazol-1-yl)tetrahydro-2H-pyran-2-yl)thio)-N,3-diethyl-3-hydroxy-N-methylpentanamide]: the 50% inhibitory concentration (IC50) in assay [1] (Table 6, hGal-3, read-out: IC50 (Gal-3 inhibition)) is 4550 nM; at human Gal-1 (hGal-1) it was 30800 nM.

Regarding `O=C([C@@H](S[C@@H]1O[C@H](CO)[C@H](O)[C@H](n2cc(-c3cc(F)c(F)c(F)c3)nn2)[C@H]1O)C1(O)CCOCC1)N1CCCCC1` [Example 2.41.208S., (S)-2-(((2S,3R,4S,5R,6R)-3,5-Dihydroxy-6-(hydroxymethyl)-4-(4-(3,4,5-trifluorophenyl)-1H-1,2,3-triazol-1-yl)tetrahydro-2H-pyran-2-yl)thio)-2-(4-hydroxytetrahydro-2H-pyran-4-yl)-1-(piperidin-1-yl)ethan-1-one], the IC50 in assay [1] (setting [3]) came out at 20 nM; on human Gal-1 (hGal-1) it was 800 nM.

In the case of `CN(CC(C)(C)C)C(=O)[C@@H](S[C@@H]1O[C@H](CO)[C@H](O)[C@H](n2cc(-c3cc(F)c(F)c(F)c3)nn2)[C@H]1O)C1(O)CCC1` [Example 2.34.228S., (S)-2-(((2S,3R,4S,5R,6R)-3,5-Dihydroxy-6-(hydroxymethyl)-4-(4-(3,4,5-trifluorophenyl)-1H-1,2,3-triazol-1-yl)tetrahydro-2H-pyran-2-yl)thio)-2-(1-hydroxycyclobutyl)-N-methyl-N-neopentylacetamide], the IC50 in assay [1] (setting [2]) was found to be 120 nM; on human Gal-1 (hGal-1), 90 nM.

Take `CN(CC(C)(C)C)C(=O)[C@H](S[C@@H]1O[C@H](CO)[C@H](O)[C@H](n2cc(-c3cc(F)c(F)c(F)c3)nn2)[C@H]1O)C1(O)CCC1` [Example 2.34.228R., (R)-2-(((2S,3R,4S,5R,6R)-3,5-Dihydroxy-6-(hydroxymethyl)-4-(4-(3,4,5-trifluorophenyl)-1H-1,2,3-triazol-1-yl)tetrahydro-2H-pyran-2-yl)thio)-2-(1-hydroxycyclobutyl)-N-methyl-N-neopentylacetamide]: the figures for the 50% inhibitory concentration (IC50) (in assay [1] (setting [2]); on human Gal-1 (hGal-1)) were 5900 nM and 22600 nM, respectively.

`O=C([C@H](S[C@@H]1O[C@H](CO)[C@H](O)[C@H](n2cc(-c3cc(F)c(F)c(F)c3)nn2)[C@H]1O)C1(O)CCC1)N1CCCCC1` [Example 2.34.208R., (R)-2-(((2S,3R,4S,5R,6R)-3,5-Dihydroxy-6-(hydroxymethyl)-4-(4-(3,4,5-trifluorophenyl)-1H-1,2,3-triazol-1-yl)tetrahydro-2H-pyran-2-yl)thio)-2-(1-hydroxycyclobutyl)-1-(piperidin-1-yl)ethan-1-one]: the half-maximal inhibitory concentration (IC50) in assay [1] (setting [2]) is 3240 nM; at human Gal-1 (hGal-1) it was 11500 nM.

`CCN(C)C(=O)[C@@H](S[C@@H]1O[C@H](CO)[C@H](O)[C@H](n2cc(-c3cc(F)c(F)c(F)c3)nn2)[C@H]1O)C1(O)CCN(C(=O)NC2CC2)CC1` [Example 2.49.203S., (S)-N-Cyclopropyl-4-(1-(((2S,3R,4S,5R,6R)-3,5-dihydroxy-6-(hydroxymethyl)-4-(4-(3,4,5-trifluorophenyl)-1H-1,2,3-triazol-1-yl)tetrahydro-2H-pyran-2-yl)thio)-2-(ethyl(methyl)amino)-2-oxoethyl)-4-hydroxypiperidine-1-carboxamide]: the 50% inhibitory concentration (IC50) is 40 nM in assay [1] (setting [4]) and 60 nM on human Gal-1 (hGal-1).

One may read the IC50 as the point on the concentration scale where inhibition reaches its midpoint.
